Literature values, collected in US20220023301A1, “METHODS OF TREATING AUTOIMMUNE DISEASES WITH SMALL MOLECULE NF-kB INHIBITORS” (ImmuneTarget, Inc., priority 2020, published 2022).

Tested on: cuprizone induced neuroinflammation mouse model

## CC(C)[C@]12O[C@H]1[C@@H]1O[C@]13[C@]1(O[C@H]1C[C@H]1C4=C(CC[C@@]13C)C(=O)OC4)[C@@H]2O [Triptolide]
0.125 mg/kg administered intraperitoneally daily
  motor function and motor coordination compared to control group: improves motor function and motor coordination
0.125 mg/kg dose
  Bax/Bcl-2 ratio: reduce Bax/Bcl-2 ratio
  behavioral deficits: improve behavioral deficits
  number of OLGs precursor cells (NG-2+/O4+): raise the number of OLGs precursor cells
